Read-outs that look alike come from different tables or passages of the source.
Key:
[1] = tested on: calf thymus DNA (CT-DNA); assay: CT-DNA binding by UV-vis absorption titration; details: for Bathochromism Shift (nm) / Hypochromism, (%): CT-DNA, UV-vis absorption titration; for Gibbs Free Energy: interaction with CT-DNA
Procedure: Both theoretical and experimental DNA binding of the synthesised organotin(IV) compounds with DNA were investigated. The interaction of organotin(IV) compounds with CT-DNA was elucidated via UV-visible absorption spectroscopy. […] The absorption spectra of diphenyltin(IV) compounds at a constant concentration (50 μM) in the absence and the presence of different concentrations of CT-DNA are shown in Figure 8. Upon increasing concentrations of CT-DNA, hypochromism and bathochromism occurred at around 350–377 nm indicating strong π–π stacking interactions between the aromatic chromophore of the organotin(IV) compounds and the nitrogeneous pair of the DNA strand [11, 70]. The same hypochromism and bathochromism shifts were also observed in other transitions. In order to compare the binding strength of the organotin(IV) compounds to CT-DNA, the intrinsic binding constants (Kb) were quantitatively determined and are presented in Table 3.
DNA binding experiments were carried out at 25°C. DNA concentration per nucleotide was determined using the molar absorption coefficient (6600 M^−1 cm^−1) at 260 nm. […] Absorption titration experiments were performed maintaining the concentration of the organotin(IV) compounds solutions at 50 µM and gradually increasing the concentration of CT-DNA. The organotin(IV) compounds were dissolved in DMSO and diluted with Tris-HCI buffer at room temperature (25 °C). The solutions were scanned over 230–600 nm. Absorbance values were recorded 10 min after the addition of DNA solution. The binding constant, Kb was determined using the equation: [DNA]/(εa−εf)=[DNA]/(εb−εf)+1/Kb(εb−εf) where [DNA] is the concentration of DNA in base pairs, εa corresponds to the apparent molar extinction coefficient Aabs/[M], εf corresponds to the extinction coefficient for the free organotin [M] and εb corresponds to the extinction coefficient for the fully bound organotin compound.

[2] = tested on: SJ-G2 (glioblastoma) cancer cells; assay: MTT growth inhibition assay, SJ-G2; type: cell-based; details: for GI50: MTT, 72 h, ± standard error, read-out: Growth Inhibition Concentration, GI50
Procedure: (§1) The Schiff bases and their organotin(IV) compounds were screened for in vitro cytotoxicity against a panel of 12 cancer cell lines: EJ-28 (muscle invasive bladder), RT-112 (minimum-invasive bladder), HT29 (colon), U87 and SJ-G2 (glioblastoma), MCF-7 (breast), A2780 (ovarian), H460 (lung), A431 (skin), DU145 (prostate), BE2-C (neuroblastoma), MIA (pancreatic) and one normal breast cell line (MCF-10A) using the MTT metabolic assay (Figure 6). After 72 h of incubation, a dose-dependent […] effect towards the cancer cell lines was measured at very low micromolar (µM) concentrations of the compounds. The growth inhibition concentration of the Schiff bases and their organotin(IV) compounds required to inhibit 50% cell proliferation relative to the cells that were treated with DMSO (control) are given in Table 2. The stability of these compounds was assessed in DMSO as well as in a mixture of DMSO-H2O. The absorbance obtained from UV-vis spectroscopy analysis was monitored for 72 h, and an unchanged pattern in the spectra was indicative that the compounds were stable in both the solvent systems tested.
(§2) For HT29 (colon), U87 and SJ-G2 (glioblastoma), MCF-7 (breast), A2780 (ovarian), H460 (lung), A431 (skin), Du145 (prostate), BE2-C (neuroblastoma), MIA (pancreas) cell lines and one normal breast cell line, MCF-10A (normal breast), the MTT assays were performed using the following method:
(§3) Stock solutions were prepared as follows and stored at −20 °C: Trial compounds were stored as 10 mM solutions in DMSO. All cell lines were cultured in a humidified atmosphere 5% CO2 at 37 °C. The cancer cell lines were maintained in Dulbecco’s modified Eagle’s medium (DMEM) (Trace Biosciences) supplemented with 10% foetal bovine serum, 10 mM sodium bicarbonate, penicillin (100 IU/mL), streptomycin (100 μg/mL) and glutamine (4 mM). The normal cell line, MCF-10A was cultured in DMEM:F12 (1:1) cell culture media, 5% heat inactivated horse serum, supplemented with penicillin (50 IU/mL), streptomycin (50 μg/mL), 20mM Hepes, L-glutamine (2 mM), epidermal growth factor (20 ng/mL), hydrocortisone (500 ng/mL), cholera toxin (100 ng/mL) and insulin (10 μg/mL).
(§4) Cells in logarithmic growth were transferred to 96-well plates. Cytotoxicity was determined by plating cells in duplicate in 100 μL medium at a density of 2500–4000 cells/well. On day 0 (24 h after plating), when the cells were in logarithmic growth, 100 μL medium, with or without the test agent, was added to each well. After 72 h drug exposure, growth inhibitory effects were evaluated using the MTT (3-[4,5-dimethylthiazol-2-yl]-2,5-diphenyltetrazolium bromide) assay and absorbance read at 540 nm. Percentage growth inhibition was determined at a fixed drug concentration of 25 μM. A value of 100% was indicative of complete cell growth inhibition. Those analogues showing appreciable percentage growth inhibition underwent further dose-response analysis allowing for the calculation of a GI50 value. This value is the drug concentration at which cell growth is 50% inhibited based on the difference between the optical density values on day 0 and those at the end of drug exposure.

[3] = tested on: HT29 (colon) cancer cells; assay: MTT growth inhibition assay, HT29; type: cell-based; details: ± standard error, read-out: Growth Inhibition Concentration, GI50
Procedure: as §1, §2, §3, §4

[4] = tested on: U87 (glioblastoma) cancer cells; assay: MTT growth inhibition assay, U87; type: cell-based; details: 72 h, ± standard error, read-out: Growth Inhibition Concentration, GI50
Procedure: as §1, §2, §3, §4

[5] = tested on: BE2-C (neuroblastoma) cancer cells; assay: MTT growth inhibition assay, BE2-C; type: cell-based; details: 72 h, ± standard error, read-out: Growth Inhibition Concentration, GI50
Procedure: as §1, §2, §3, §4

[6] = tested on: RT-112 (minimum-invasive bladder) cancer cells; assay: MTT cytotoxicity assay, RT-112; type: cell-based, human; details: RT-112 cells, 72 h, ± standard error, read-out: Growth Inhibition Concentration, GI50
Procedure: as §1
(§5) The inhibitory effect of the synthesised compounds on the growth of bladder (EJ-28 and RT-112) cancer cells was evaluated by MTT assay. […] RT-112 and EJ-28, human bladder cancer cell lines used in this study (ATCC, Manassas, VA, USA) were cultured in RPMI-1640 (High glucose) medium supplemented with 10% fetal bovine serum containing 1% penicillin. The cells were cultured at 37 °C in a humidified atmosphere of 5% CO2 in air. Cells were seeded in 96-well plates at 6000 cells per well for 24 h, then they were treated with different concentrations of compounds for 72 h. The medium was subsequently removed and the wells were washed with 200 µL of phosphate buffer saline. Aliquots of 20 µL of 3-(4,5-dimethylthiazol-2-yl)-2,5-diphenyltetrazolium bromide (MTT) was added to each well and incubated for 4 h at 37 °C. Aliquots of 200 µL of media was then removed from each well and 200 µL of DMSO was added. Optical density (OD) was measured using an ELISA plate reader at 570 nm. Control wells (100% viability), containing media and DMSO, were included in all the experiments. All data points represented an average of triplicate assays. Cytotoxicity was expressed as CD50, i.e., the concentration that reduced the absorbance of treated cells by 50% with reference to the control (untreated cells).

[7] = tested on: MCF-7 (breast) cancer cells; assay: MTT growth inhibition assay, MCF-7; type: cell-based; details: 72 h, ± standard error, read-out: Growth Inhibition Concentration, GI50
Procedure: as §1, §2, §3, §4

[8] = tested on: EJ-28 (muscle invasive bladder) cancer cells; assay: MTT cytotoxicity assay, EJ-28; type: cell-based, human; details: EJ-28 cells, 72 h, ± standard error, read-out: Growth Inhibition Concentration, GI50
Procedure: as §1, §5

[9] = tested on: MCF-10A (normal breast) cell line; assay: MTT growth inhibition assay, MCF10A; type: cell-based; details: MCF10A normal breast cells, 72 h, ± standard error, read-out: Growth Inhibition Concentration, GI50
Procedure: as §1, §2, §3, §4

[10] = tested on: H460 (lung) cancer cells; assay: MTT growth inhibition assay, H460; type: cell-based; details: ± standard error, read-out: Growth Inhibition Concentration, GI50
Procedure: as §1, §2, §3, §4

[11] = tested on: A431 (skin) cancer cells; assay: MTT growth inhibition assay, A431; type: cell-based; details: ± standard error, read-out: Growth Inhibition Concentration, GI50
Procedure: as §1, §2, §3, §4

[12] = tested on: MIA (pancreatic) cancer cells; assay: MTT growth inhibition assay, MIA; type: cell-based; details: 72 h, ± standard error, read-out: Growth Inhibition Concentration, GI50
Procedure: as §1, §2, §3, §4

[13] = tested on: Du145 (prostate) cancer cells; assay: MTT growth inhibition assay, Du145; type: cell-based; details: ± standard error, read-out: Growth Inhibition Concentration, GI50
Procedure: as §1, §2, §3, §4

[14] = tested on: A2780 (ovarian) cancer cells; assay: MTT growth inhibition assay, A2780; type: cell-based; details: 72 h, ± standard error, read-out: Growth Inhibition Concentration, GI50
Procedure: as §1, §2, §3, §4

[15] = Homo sapiens, MCF7, MCF-7 cells

Compound	Bathochromism Shift (nm) [1]	Hypochromism, (%) [1]	Gibbs Free Energy [1]	GI50 [2]	GI50 ([3]; 72 h)	GI50 [4]	GI50 [5]	GI50 [6]	GI50 ([7]; MCF-7 cells)	GI50 [8]	GI50 [9]	GI50 ([10]; 72 h)	GI50 ([11]; 72 h)	GI50 [12]	GI50 ([13]; 72 h)	GI50 [14]	GI50 ([3]; Homo sapiens, HT-29, 72 h)	GI50 ([4]; Homo sapiens, U-87 MG)	GI50 ([5]; Homo sapiens, BE(2)-C)	GI50 ([6]; Homo sapiens)	further results
COc1cccc2c1[O][Sn]([CH3])([CH3])[S]C(SCc1ccccc1C)=NN=C2 [Me2Sn(S2MoVa), Dimethyltin(IV) [S-2-Methybenzyl-β-N-(2-hydroxy-3-methoxybenzylmethylene) dithiocarbazate]]	10 nm	37.97%	-7.55 kcal/mol	2.5 ± 0.3 µM	2.7 ± 0.1 µM	3.6 ± 0.23 µM	2.9 ± 0.03 µM	2.4 ± 0.77 µM	3.1 ± 0.12 µM	2.5 ± 0.78 µM	3 ± 0.09 µM	3.3 ± 0.13 µM	3 ± 0.03 µM	3.9 ± 0.07 µM	3.9 ± 0.03 µM	3.1 ± 0.06 µM					
COc1cccc2c1[O][Sn]([CH3])([CH3])[S]C(SCc1ccc(C)cc1)=NN=C2 [Me2Sn(S4MoVa), Dimethyltin(IV) [S-4-Methybenzyl-β-N-(2-hydroxy-3-methoxybenzylmethylene) dithiocarbazate]]	7 nm	43.72%	-7.67 kcal/mol	3.1 ± 0.55 µM	6.9 ± 3.5 µM	3.3 ± 0.18 µM	3.3 ± 0.23 µM	> 5 µM	3.3 ± 0.32 µM	> 5 µM	3.3 ± 0.15 µM	4.7 ± 0.46 µM	4.2 ± 0.34 µM	8.9 ± 1.3 µM	4.2 ± 0.1 µM	3.1 ± 0.63 µM					
COc1cccc2c1[O][Sn]([CH3])([CH3])[S]C(SCc1ccccc1)=NN=C2 [Me2Sn(SBoVa), Dimethyltin(IV) [S-Benzyl-β-N-(2-hydroxy-3-methoxybenzylmethylene) dithiocarbazate]]	1 nm	53.26%	-8.99 kcal/mol	2.1 ± 0.12 µM	2.8 ± 0.15 µM	4.5 ± 0.19 µM	2.7 ± 0.13 µM	2.4 ± 0.33 µM	2.5 ± 0.21 µM	3.4 ± 0.3 µM	2.8 ± 0.41 µM	3.8 ± 0.1 µM	3.2 ± 0.03 µM	5 ± 0.09 µM	3.2 ± 0.13 µM	3.2 ± 0.03 µM					
COc1cccc2c1[O][Sn]([c]1ccccc1)([c]1ccccc1)[S]C(SCc1ccccc1)=NN=C2 [Ph2Sn(SBoVa), Diphenyltin(IV) [S-Benzyl-β-N-(2-hydroxy-3-methoxybenzylmethylene) dithiocarbazate]]	12 nm	70.72%	-8.29 kcal/mol	0.74 ± 0.15 µM	1.2 ± 0.22 µM	1.1 ± 0.39 µM	0.5 ± 0.05 µM	0.58 ± 0.29 µM	0.9 ± 0.16 µM	0.32 ± 0.05 µM	1.3 ± 0.2 µM	2.2 µM	1.6 ± 0.07 µM	0.43 ± 0.04 µM	1.4 ± 0.33 µM	0.23 ± 0.03 µM					greater activity than respective Schiff base ([2]; GI50 comparison): 3 fold
COc1cccc(/C=N/NC(=S)SCc2ccccc2C)c1O [S2MoVaH, S-2-Methybenzyl-β-N-(2-hydroxy-3-methoxybenzylmethylene) Dithiocarbazate]				3 ± 0.09 µM													3.9 ± 0.71 µM	4.3 ± 0.3 µM	3.1 µM	4.6 ± 0.45 µM	GI50 [7, 15]: 2.7 ± 0.21 µM; GI50 ([8]; Homo sapiens): 3.4 ± 0.47 µM; melting point: 180 to 183 °C; GI50 ([9]; Homo sapiens, MCF-10A): 3.1 ± 0.07 µM; GI50 ([10]; Homo sapiens, NCI-H460, 72 h): 4.3 ± 0.12 µM; GI50 ([11]; Homo sapiens, A-431, 72 h): 3.8 ± 0.03 µM; GI50 ([12]; Pancreatic cancer cell): 4.9 ± 0.37 µM; GI50 ([13]; Homo sapiens, DU-145, 72 h): 4.1 ± 0.09 µM; GI50 ([14]; Homo sapiens): 3.2 ± 0.15 µM
COc1cccc(/C=N/NC(=S)SCc2ccc(C)cc2)c1O [S4MoVaH, S-4-Methybenzyl-β-N-(2-hydroxy-3-methoxybenzylmethylene)dithiocarbazate]				3.3 ± 0.87 µM													8 ± 3.5 µM	3.9 µM	3.6 ± 0.27 µM	3.2 ± 0.51 µM	GI50 [7, 15]: 3.5 µM; GI50 ([8]; Homo sapiens): 3.6 ± 0.44 µM; melting point: 177 to 178 °C; GI50 ([9]; Homo sapiens, MCF-10A): 3.5 ± 0.23 µM; GI50 ([10]; Homo sapiens, NCI-H460, 72 h): 5.5 ± 0.73 µM; GI50 ([11]; Homo sapiens, A-431, 72 h): 4.2 ± 0.74 µM; GI50 ([12]; Pancreatic cancer cell): 11 ± 2.3 µM; GI50 ([13]; Homo sapiens, DU-145, 72 h): 5.4 ± 0.23 µM; GI50 ([14]; Homo sapiens): 3.1 ± 0.4 µM

From article PMC6413231, “o-Vanillin Derived Schiff Bases and Their Organotin(IV) Compounds: Synthesis, Structural Characterisation, In-Silico Studies and Cytotoxicity” (International Journal of Molecular Sciences, 2019)
